# In article PMC10176470, “Engaging a Non-catalytic Cysteine Residue Drives Potent and Selective Inhibition of Caspase-6” (Journal of the American Chemical Society, 2023):
# Columns and labels:
# Assay type in all cases: cell-based
# [1] = target: proteins of HEK293T cells transiently overexpressing caspase-6 (Homo sapiens, UniProt O96008); settings: exp_ref Probe; protein TOMM40 (O96008); analysis C6
# [2] = target: proteins of HEK293T cells transiently overexpressing caspase-6 (Homo sapiens, UniProt P00558); settings: exp_ref Probe; protein PGK1 (P00558); analysis C6
# [3] = target: proteins of HEK293T cells transiently overexpressing caspase-6 (Homo sapiens, UniProt P06733); settings: protein ENO1 (P06733)
# [4] = target: proteins of HEK293T cells transiently overexpressing caspase-6 (Homo sapiens, UniProt P09429); settings: Probe; protein HMGB1 P09429
# [5] = target: proteins of HEK293T cells transiently overexpressing caspase-6 (Homo sapiens, UniProt P11142); settings: protein HSPA8 (P11142)
# [6] = target: proteins of HEK293T cells transiently overexpressing caspase-6 (Homo sapiens, UniProt P11586); settings: Probe; protein MTHFD1 P11586
# [7] = target: proteins of HEK293T cells transiently overexpressing caspase-6 (Homo sapiens, UniProt P23396); settings: exp_ref Probe; protein RPS3 (P23396); analysis C6
# [8] = target: proteins of HEK293T cells transiently overexpressing caspase-6 (Homo sapiens, UniProt P23528); settings: protein CFL1 (P23528)
# [9] = target: proteins of HEK293T cells transiently overexpressing caspase-6 (Homo sapiens, UniProt P28838); settings: exp_ref Probe; protein LAP3 (P28838); analysis C6
# [10] = target: proteins of HEK293T cells transiently overexpressing caspase-6 (Homo sapiens, UniProt P39687); settings: exp_ref Probe; protein ANP32A (P39687); analysis C6
# [11] = target: proteins of HEK293T cells transiently overexpressing caspase-6 (Homo sapiens, UniProt P49588); settings: Probe; protein AARS P49588
# [12] = target: proteins of HEK293T cells transiently overexpressing caspase-6 (Homo sapiens, UniProt P60842); settings: exp_ref Probe; protein EIF4A1 (P60842); analysis C6
# [13] = target: proteins of HEK293T cells transiently overexpressing caspase-6 (Homo sapiens, UniProt P62263); settings: exp_ref Probe; protein RPS14 (P62263); analysis C6
# [14] = target: proteins of HEK293T cells transiently overexpressing caspase-6 (Homo sapiens, UniProt P62917); settings: Probe; protein RPL8 P62917
# [15] = target: proteins of HEK293T cells transiently overexpressing caspase-6 (Homo sapiens, UniProt P63244); settings: exp_ref Probe; protein GNB2L1 (P63244); analysis C6
# [16] = target: proteins of HEK293T cells transiently overexpressing caspase-6 (Homo sapiens, UniProt P78527); settings: exp_ref Probe; protein PRKDC (P78527); analysis C6
# [17] = target: proteins of HEK293T cells transiently overexpressing caspase-6 (Homo sapiens, UniProt Q00610); settings: exp_ref Probe; protein CLTC (Q00610); analysis C6
# [18] = target: proteins of HEK293T cells transiently overexpressing caspase-6 (Homo sapiens, UniProt Q04917); settings: Probe; protein YWHAH Q04917
# [19] = target: proteins of HEK293T cells transiently overexpressing caspase-6 (Homo sapiens, UniProt Q14444); settings: exp_ref Probe; protein CAPRIN1 (Q14444); analysis C6
# [20] = target: proteins of HEK293T cells transiently overexpressing caspase-6 (Homo sapiens, UniProt Q15029); settings: exp_ref Probe; protein EFTUD2 (Q15029); analysis C6
# [21] = target: T1, proteins of HEK293T cells transiently overexpressing caspase-6 (Homo sapiens, UniProt Q99832); settings: protein CCT7 (Q99832)
# T1 sequence (Q99832 1-543): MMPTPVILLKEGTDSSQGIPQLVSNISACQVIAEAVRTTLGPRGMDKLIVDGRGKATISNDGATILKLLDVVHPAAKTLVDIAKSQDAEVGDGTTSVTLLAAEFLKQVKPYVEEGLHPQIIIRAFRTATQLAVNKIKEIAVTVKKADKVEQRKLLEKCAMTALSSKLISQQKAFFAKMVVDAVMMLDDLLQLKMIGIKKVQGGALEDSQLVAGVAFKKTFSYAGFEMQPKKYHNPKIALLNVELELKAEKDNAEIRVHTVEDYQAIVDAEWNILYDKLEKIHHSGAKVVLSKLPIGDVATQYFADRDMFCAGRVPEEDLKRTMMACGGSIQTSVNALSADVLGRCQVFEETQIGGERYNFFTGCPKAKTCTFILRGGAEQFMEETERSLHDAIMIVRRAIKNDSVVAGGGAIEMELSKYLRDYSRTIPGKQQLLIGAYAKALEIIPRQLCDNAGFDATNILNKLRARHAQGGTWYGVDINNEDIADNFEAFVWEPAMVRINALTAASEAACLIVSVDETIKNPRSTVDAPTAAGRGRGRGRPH
# [22] = target: proteins of HEK293T cells transiently overexpressing caspase-6 (Homo sapiens, UniProt Q9NNW7); settings: Probe; protein TXNRD2 Q9NNW7
# Chain of proteins of HEK293T cells transiently overexpressing caspase-6 (Homo sapiens, UniProt P23528) (P23528 whole entry): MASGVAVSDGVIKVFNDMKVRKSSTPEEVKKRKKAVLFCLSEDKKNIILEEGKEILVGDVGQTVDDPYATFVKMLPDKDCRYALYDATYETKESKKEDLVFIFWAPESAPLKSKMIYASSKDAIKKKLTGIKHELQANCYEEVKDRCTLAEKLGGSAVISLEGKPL
# Chain of proteins of HEK293T cells transiently overexpressing caspase-6 (Homo sapiens, UniProt P06733) (P06733 whole entry): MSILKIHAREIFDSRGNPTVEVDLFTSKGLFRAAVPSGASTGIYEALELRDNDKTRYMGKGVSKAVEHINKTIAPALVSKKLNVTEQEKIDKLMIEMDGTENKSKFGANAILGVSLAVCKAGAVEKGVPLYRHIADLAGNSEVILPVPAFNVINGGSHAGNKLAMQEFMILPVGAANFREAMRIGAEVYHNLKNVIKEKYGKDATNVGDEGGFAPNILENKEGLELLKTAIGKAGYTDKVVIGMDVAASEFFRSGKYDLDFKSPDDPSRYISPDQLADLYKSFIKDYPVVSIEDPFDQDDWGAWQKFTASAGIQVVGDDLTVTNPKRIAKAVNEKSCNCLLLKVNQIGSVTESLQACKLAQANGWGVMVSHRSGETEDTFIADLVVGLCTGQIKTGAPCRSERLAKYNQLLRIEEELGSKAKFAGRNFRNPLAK
# Chain of proteins of HEK293T cells transiently overexpressing caspase-6 (Homo sapiens, UniProt P11142) (P11142 whole entry): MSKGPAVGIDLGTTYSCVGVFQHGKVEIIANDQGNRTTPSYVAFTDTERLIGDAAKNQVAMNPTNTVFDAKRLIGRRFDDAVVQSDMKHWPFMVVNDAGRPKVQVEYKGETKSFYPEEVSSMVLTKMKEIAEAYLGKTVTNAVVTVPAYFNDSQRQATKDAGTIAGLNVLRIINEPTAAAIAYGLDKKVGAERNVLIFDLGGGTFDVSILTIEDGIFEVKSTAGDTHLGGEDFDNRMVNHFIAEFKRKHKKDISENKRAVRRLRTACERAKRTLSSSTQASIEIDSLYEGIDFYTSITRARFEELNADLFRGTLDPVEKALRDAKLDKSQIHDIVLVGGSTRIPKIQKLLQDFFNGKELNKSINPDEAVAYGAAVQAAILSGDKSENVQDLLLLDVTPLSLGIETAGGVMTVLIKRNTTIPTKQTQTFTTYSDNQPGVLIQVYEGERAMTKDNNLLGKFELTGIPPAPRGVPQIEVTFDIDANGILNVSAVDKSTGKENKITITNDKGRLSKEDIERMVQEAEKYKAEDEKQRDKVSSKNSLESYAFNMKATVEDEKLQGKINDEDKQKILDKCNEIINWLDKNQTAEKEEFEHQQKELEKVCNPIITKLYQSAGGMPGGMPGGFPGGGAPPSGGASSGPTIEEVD
# Chain of proteins of HEK293T cells transiently overexpressing caspase-6 (Homo sapiens, UniProt O96008) (O96008 whole entry): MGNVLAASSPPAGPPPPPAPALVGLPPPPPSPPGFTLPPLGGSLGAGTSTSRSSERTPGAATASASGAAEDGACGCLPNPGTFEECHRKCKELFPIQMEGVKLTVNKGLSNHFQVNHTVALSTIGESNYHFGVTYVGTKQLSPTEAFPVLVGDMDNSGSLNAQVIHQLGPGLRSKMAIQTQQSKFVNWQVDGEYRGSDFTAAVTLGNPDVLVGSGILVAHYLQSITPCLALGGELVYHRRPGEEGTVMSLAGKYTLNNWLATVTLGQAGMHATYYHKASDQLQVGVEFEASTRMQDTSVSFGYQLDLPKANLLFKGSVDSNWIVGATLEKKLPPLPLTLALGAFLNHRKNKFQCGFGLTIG
# Chain of proteins of HEK293T cells transiently overexpressing caspase-6 (Homo sapiens, UniProt P60842) (P60842 whole entry): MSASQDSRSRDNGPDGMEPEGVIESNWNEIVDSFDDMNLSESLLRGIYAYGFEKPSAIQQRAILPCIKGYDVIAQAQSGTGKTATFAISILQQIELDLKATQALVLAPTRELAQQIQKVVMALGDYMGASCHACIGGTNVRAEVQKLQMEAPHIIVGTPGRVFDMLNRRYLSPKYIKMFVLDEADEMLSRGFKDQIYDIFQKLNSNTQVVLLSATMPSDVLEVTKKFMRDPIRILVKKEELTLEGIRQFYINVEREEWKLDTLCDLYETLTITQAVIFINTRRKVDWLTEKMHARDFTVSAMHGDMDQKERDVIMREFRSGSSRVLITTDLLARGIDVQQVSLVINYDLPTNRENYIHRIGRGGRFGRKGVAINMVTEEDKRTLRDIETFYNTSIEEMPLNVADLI
# Chain of proteins of HEK293T cells transiently overexpressing caspase-6 (Homo sapiens, UniProt P11586) (P11586 whole entry): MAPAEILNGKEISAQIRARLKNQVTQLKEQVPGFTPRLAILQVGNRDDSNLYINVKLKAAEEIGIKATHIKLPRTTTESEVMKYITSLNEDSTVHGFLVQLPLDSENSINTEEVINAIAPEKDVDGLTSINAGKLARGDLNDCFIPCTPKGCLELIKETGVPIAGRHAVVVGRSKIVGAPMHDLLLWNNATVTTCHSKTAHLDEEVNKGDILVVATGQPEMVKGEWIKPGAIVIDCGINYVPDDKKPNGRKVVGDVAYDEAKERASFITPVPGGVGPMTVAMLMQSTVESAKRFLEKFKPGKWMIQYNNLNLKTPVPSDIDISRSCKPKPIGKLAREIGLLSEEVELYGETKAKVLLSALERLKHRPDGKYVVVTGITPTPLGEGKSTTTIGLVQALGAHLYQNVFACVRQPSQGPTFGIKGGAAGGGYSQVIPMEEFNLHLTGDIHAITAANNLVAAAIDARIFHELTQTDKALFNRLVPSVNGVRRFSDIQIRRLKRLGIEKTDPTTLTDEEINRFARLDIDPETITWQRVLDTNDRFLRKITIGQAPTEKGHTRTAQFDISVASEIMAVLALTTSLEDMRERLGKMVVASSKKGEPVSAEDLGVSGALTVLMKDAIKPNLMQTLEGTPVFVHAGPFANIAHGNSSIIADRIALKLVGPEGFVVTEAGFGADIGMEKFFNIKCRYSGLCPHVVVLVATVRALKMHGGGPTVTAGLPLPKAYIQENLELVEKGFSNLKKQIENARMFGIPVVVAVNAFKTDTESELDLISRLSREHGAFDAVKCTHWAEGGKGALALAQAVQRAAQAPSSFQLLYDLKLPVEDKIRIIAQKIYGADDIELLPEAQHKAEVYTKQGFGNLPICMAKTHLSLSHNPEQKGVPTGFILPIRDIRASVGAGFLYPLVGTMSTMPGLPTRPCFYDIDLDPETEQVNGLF
# Chain of proteins of HEK293T cells transiently overexpressing caspase-6 (Homo sapiens, UniProt P39687) (P39687 whole entry): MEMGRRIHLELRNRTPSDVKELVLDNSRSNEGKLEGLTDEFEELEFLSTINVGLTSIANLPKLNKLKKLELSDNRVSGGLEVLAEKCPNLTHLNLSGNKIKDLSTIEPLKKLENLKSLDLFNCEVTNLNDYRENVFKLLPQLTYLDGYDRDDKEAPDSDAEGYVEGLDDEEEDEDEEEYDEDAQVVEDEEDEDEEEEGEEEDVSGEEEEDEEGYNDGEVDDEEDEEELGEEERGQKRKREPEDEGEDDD
# Chain of proteins of HEK293T cells transiently overexpressing caspase-6 (Homo sapiens, UniProt P49588) (P49588 whole entry): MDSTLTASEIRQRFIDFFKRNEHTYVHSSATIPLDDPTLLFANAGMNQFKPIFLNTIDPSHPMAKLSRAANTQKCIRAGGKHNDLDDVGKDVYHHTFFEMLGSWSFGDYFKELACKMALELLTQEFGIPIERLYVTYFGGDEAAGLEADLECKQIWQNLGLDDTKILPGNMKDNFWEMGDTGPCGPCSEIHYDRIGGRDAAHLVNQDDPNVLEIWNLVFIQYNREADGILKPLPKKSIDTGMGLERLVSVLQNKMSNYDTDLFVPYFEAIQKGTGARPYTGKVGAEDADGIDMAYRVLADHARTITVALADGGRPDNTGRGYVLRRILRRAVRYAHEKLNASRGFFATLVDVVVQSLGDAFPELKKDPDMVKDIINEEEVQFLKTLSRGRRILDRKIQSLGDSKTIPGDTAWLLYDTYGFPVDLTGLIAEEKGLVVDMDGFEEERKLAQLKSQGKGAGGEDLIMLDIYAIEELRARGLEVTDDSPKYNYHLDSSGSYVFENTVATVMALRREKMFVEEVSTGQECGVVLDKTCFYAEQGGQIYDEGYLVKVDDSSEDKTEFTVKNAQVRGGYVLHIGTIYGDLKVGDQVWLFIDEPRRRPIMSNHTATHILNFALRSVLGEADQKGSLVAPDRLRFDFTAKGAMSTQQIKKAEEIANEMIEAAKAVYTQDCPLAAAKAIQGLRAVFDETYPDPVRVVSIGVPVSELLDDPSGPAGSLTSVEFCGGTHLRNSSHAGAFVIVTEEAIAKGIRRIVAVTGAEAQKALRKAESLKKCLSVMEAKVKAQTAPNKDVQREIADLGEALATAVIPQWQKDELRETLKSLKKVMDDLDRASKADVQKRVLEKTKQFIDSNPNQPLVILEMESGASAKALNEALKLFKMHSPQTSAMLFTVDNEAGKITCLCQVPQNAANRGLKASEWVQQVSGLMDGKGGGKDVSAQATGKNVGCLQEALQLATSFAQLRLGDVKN
# Chain of proteins of HEK293T cells transiently overexpressing caspase-6 (Homo sapiens, UniProt P28838) (P28838 whole entry): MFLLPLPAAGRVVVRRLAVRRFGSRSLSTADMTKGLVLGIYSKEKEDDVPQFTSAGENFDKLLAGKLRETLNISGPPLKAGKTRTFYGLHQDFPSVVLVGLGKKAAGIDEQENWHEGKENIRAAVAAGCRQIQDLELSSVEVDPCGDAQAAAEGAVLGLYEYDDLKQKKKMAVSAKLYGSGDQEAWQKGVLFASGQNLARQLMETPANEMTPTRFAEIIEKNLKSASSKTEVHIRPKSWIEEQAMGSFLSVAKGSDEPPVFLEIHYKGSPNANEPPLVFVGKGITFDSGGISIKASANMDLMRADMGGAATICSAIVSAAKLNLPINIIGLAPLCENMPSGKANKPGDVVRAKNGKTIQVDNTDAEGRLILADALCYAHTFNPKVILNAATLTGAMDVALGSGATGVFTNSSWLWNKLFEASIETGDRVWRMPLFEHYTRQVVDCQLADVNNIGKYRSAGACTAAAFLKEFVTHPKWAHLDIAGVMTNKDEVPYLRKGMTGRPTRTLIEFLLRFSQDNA
# Chain of proteins of HEK293T cells transiently overexpressing caspase-6 (Homo sapiens, UniProt P09429) (P09429 whole entry): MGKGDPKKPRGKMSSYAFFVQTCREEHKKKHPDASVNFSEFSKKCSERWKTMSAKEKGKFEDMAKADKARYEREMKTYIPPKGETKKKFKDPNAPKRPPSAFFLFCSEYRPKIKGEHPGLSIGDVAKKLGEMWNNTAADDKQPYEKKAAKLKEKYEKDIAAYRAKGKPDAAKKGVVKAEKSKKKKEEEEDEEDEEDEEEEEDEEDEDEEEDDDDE
compound,measurement,setting,value
C#CCOc1ccc([C@@H]2C[C@@H](C(=O)Nc3ccc(OC(F)(F)F)cc3)CN(S(=O)(=O)C=C)C2)cc1 (relative stereo) [13-t],enrich.exp.med,[1],0.5045
same,enrich.exp.med,[2],0.1871
same,enrich.exp.med,"[3]; exp_ref Probe, analysis C6",0.5104
same,enrich.exp.med.lin,[3],1.424
same,enrich.exp.med.log2,[3],0.5104
same,enrich.exp.med,[4],-1.399
same,enrich.exp.med,"[5]; exp_ref Probe, analysis C6",0.3873
same,enrich.exp.med.lin,[5],1.308
same,enrich.exp.med.log2,[5],0.3873
same,enrich.exp.med,[6],-1.178
same,enrich.exp.med,[7],0.6101
same,enrich.exp.med,"[8]; exp_ref Probe, analysis C6",0.4078
same,enrich.exp.med.lin,[8],1.327
same,enrich.exp.med.log2,[8],0.4078
same,enrich.exp.med,[9],0.6337
same,enrich.exp.med,[10],0.2226
same,enrich.exp.med,[11],-2.083
same,enrich.exp.med,[12],0.8215
same,enrich.exp.med,[13],-0.03314
same,enrich.exp.med,[14],-0.8445
same,enrich.exp.med,[15],0.2005
same,enrich.exp.med,[16],0.5475
same,enrich.exp.med,[17],-0.1743
same,enrich.exp.med,[18],-1.452
same,enrich.exp.med,[19],0.06778
same,enrich.exp.med,[20],0.4056
same,enrich.exp.med,"[21]; exp_ref Probe, analysis C6",0.5798
same,enrich.exp.med.lin,[21],1.495
same,enrich.exp.med.log2,[21],0.5798
same,enrich.exp.med,[22],-0.4404
